From ChEMBL document CHEMBL1921798, “Discovery of a potent, selective, and orally available class I phosphatidylinositol 3-kinase (PI3K)/mammalian target of rapamycin (mTOR) kinase inhibitor (GDC-0980) for the treatment of cancer” (J Med Chem, 2011)
Values after ≈ are worked out from the molar mass of the structure shown.

What was measured:
physchem [1] = details: buffer, pH 6.5
Description: Thermodynamic solubility of the compound at pH 6.5

in vitro = details: human, plasma
Description: Plasma protein binding in human

physchem [2] = details: octanol/water
Description: Lipophilicity, log D of the compound

[3] = molecular target: Phosphatidylinositol 4,5-bisphosphate 3-kinase catalytic subunit beta isoform (Homo sapiens, UniProt P42338)
Phosphatidylinositol 4,5-bisphosphate 3-kinase catalytic subunit beta isoform, sequence (P42338 whole entry, canonical isoform): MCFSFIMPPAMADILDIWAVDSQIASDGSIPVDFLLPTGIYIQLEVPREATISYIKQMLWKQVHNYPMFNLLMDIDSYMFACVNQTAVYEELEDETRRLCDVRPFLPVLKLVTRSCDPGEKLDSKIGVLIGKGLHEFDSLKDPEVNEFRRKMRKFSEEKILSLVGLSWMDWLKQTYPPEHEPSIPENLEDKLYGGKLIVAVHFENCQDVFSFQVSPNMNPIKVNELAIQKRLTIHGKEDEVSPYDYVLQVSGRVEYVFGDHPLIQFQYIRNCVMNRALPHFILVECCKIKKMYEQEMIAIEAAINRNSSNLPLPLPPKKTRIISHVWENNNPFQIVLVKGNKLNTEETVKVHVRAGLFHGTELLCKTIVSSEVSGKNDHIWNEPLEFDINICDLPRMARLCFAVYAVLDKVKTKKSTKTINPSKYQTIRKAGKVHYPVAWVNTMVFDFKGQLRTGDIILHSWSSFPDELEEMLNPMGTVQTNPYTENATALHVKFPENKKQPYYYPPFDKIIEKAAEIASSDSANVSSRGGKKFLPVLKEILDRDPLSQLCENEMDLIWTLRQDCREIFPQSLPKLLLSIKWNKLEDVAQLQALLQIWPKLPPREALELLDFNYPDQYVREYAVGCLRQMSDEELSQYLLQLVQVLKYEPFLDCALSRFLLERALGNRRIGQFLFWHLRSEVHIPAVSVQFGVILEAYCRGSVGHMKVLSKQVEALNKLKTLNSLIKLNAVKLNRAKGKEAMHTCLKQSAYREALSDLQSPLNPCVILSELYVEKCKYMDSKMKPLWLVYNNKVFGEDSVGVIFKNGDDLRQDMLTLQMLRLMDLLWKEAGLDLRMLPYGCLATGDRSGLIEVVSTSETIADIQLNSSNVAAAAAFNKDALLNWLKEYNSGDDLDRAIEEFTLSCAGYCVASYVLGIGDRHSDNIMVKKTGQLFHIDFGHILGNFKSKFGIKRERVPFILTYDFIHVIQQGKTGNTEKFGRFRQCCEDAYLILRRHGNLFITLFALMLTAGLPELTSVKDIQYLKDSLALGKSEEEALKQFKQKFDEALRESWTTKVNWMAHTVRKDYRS
Description: Inhibition of PI3K subunit p110beta assessed as formation of phosphatidylinositide-3-phosphate product formation after 30 mins by fluorescence polarization assay

[4] = molecular target: Serine/threonine-protein kinase mTOR (Homo sapiens, UniProt P42345)
Description: Inhibition of human recombinant mTOR expressed in insect cells assessed as phosphorylation of recombinant (GFP)-4-EBP1 measured after 30 mins by fluorescence polarization assay

[5] = molecular target: Phosphatidylinositol 4,5-bisphosphate 3-kinase catalytic subunit gamma isoform (Homo sapiens, UniProt P48736)
Phosphatidylinositol 4,5-bisphosphate 3-kinase catalytic subunit gamma isoform, sequence (P48736 whole entry, canonical isoform): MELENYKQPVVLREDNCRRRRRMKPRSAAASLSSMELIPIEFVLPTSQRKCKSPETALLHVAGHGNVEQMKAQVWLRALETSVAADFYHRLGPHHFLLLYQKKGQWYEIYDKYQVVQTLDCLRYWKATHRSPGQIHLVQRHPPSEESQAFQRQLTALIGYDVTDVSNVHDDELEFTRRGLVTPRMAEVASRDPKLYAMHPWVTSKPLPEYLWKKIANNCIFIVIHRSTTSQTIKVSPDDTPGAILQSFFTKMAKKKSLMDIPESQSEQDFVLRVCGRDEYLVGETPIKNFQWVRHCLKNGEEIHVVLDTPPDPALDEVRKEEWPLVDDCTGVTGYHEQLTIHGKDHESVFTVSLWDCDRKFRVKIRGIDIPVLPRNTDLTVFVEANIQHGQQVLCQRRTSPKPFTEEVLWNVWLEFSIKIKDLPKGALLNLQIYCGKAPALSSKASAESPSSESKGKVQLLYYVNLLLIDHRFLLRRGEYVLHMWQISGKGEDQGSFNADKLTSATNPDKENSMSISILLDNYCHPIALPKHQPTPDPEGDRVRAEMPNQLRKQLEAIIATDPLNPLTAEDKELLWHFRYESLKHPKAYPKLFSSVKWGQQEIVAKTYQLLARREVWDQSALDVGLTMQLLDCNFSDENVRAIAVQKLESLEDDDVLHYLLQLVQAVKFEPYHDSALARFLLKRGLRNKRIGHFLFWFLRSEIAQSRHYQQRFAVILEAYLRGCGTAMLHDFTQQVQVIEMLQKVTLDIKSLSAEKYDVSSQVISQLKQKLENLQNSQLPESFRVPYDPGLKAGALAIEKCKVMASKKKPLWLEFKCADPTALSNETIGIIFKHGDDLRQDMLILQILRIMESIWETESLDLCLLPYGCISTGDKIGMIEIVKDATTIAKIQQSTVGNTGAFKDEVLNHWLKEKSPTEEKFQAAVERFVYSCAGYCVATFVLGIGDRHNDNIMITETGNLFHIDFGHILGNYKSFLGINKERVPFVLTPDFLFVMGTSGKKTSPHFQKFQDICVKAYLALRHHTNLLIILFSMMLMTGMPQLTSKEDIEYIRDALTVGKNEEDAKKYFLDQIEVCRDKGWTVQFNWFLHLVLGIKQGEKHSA

[6] = molecular target: T1, Phosphatidylinositol 4,5-bisphosphate 3-kinase catalytic subunit delta isoform (Homo sapiens, UniProt O00329)
T1 sequence (O00329 whole entry): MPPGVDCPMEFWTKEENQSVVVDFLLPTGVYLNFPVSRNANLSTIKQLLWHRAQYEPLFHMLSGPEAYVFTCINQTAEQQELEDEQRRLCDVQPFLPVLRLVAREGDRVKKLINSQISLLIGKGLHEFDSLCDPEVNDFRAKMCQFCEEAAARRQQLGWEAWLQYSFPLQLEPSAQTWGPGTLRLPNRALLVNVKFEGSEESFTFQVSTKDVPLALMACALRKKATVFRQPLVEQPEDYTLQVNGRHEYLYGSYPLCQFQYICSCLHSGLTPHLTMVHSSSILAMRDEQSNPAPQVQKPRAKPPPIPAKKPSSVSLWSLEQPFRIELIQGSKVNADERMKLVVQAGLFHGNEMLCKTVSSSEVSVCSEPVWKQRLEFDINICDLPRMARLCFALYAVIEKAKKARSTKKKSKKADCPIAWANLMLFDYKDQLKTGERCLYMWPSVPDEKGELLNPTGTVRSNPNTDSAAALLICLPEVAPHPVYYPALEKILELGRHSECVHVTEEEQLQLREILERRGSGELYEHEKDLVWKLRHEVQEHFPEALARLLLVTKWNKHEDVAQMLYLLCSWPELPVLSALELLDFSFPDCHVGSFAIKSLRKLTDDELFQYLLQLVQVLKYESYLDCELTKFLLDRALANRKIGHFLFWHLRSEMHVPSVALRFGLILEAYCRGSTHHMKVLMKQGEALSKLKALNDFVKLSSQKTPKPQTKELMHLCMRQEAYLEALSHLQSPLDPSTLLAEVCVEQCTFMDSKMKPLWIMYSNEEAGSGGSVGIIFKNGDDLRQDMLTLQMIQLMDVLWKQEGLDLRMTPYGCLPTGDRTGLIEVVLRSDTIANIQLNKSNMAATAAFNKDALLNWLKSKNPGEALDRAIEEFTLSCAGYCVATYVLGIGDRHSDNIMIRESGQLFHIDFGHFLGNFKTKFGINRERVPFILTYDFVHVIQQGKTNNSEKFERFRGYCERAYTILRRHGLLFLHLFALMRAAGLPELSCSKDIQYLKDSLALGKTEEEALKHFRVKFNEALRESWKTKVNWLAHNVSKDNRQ

[7] = molecular target: Phosphatidylinositol 4,5-bisphosphate 3-kinase catalytic subunit alpha isoform (Homo sapiens, UniProt P42336)
Phosphatidylinositol 4,5-bisphosphate 3-kinase catalytic subunit alpha isoform, sequence (P42336 whole entry, canonical isoform): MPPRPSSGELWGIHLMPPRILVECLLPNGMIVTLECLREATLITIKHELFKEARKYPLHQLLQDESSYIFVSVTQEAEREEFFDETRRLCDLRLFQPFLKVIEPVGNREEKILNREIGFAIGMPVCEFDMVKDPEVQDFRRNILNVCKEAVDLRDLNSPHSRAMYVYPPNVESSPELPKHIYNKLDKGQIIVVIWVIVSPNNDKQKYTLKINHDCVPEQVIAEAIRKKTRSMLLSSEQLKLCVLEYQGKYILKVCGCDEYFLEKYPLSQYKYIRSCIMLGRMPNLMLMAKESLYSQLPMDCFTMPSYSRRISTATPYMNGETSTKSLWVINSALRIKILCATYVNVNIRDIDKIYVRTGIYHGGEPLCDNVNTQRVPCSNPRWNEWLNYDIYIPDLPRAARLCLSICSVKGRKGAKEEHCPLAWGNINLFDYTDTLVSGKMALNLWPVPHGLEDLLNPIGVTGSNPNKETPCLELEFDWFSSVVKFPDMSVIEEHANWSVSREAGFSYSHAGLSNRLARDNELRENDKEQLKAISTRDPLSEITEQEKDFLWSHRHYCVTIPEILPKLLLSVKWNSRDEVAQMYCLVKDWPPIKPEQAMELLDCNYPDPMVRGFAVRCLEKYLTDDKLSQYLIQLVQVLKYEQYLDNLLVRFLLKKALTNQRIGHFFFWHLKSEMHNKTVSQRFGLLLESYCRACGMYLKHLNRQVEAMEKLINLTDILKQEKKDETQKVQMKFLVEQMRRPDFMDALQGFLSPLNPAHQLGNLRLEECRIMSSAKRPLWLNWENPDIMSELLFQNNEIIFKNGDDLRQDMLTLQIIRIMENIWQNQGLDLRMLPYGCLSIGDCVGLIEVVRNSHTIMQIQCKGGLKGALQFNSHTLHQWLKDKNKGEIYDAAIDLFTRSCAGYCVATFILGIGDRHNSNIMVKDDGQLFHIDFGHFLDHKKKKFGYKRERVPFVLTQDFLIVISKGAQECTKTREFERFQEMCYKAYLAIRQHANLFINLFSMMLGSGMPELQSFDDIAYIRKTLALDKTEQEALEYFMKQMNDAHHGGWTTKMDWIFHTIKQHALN
Description: Inhibition of PI3K subunit p110alpha assessed as formation of phosphatidylinositide-3-phosphate product formation after 30 mins by fluorescence polarization assay

in vivo [8] = details: Sprague-Dawley, rat, plasma, iv, 1 mg/kg
in vivo [9] = details: beagle, dog, plasma, iv, 1 mg/kg
in vivo [10] = details: Sprague-Dawley, rat, po, 1 mg/kg

solubility thermodynamic (physchem [1]) [µg/mL] | IC50 [3] [nM] | IC50 [5] [nM] | IC50 [6] [nM] | clearance (in vivo [8]) [mL/min/kg] | Compound | further results
24 (≈ 48.9 µM) | – | – | – | – | CS(=O)(=O)N1CCN(Cc2cc3nc(-c4cnc(N)nc4)nc(N4CCOCC4)c3s2)CC1 | fraction unbound (in vitro): 0.49; logD (physchem [2]): 1.3
9 (≈ 17.8 µM) | – | – | – | – | Cc1c(CN2CCN(S(C)(=O)=O)CC2)sc2c(N3CCOCC3)nc(-c3cnc(N)nc3)nc12 | fraction unbound (in vitro): 0.23
– | 19 | 10 | 5.6 | – | Cc1c(CN2CCN(C(=O)CO)CC2)sc2c(N3CCOCC3)nc(-c3cnc(N)nc3)nc12 | Ki [7]: 2.8 nM
– | – | – | – | 24 | CS(=O)(=O)N1CCN(Cc2cc3nc(-c4cnc(N)nc4)nc(N4CCOCC4)c3s2)CC1.O=C(O)C(F)(F)F | –
– | – | – | – | 13 | Cc1c(CN2CCN(S(C)(=O)=O)CC2)sc2c(N3CCOCC3)nc(-c3cnc(N)nc3)nc12.O=C(O)C(F)(F)F | –

More lines, now with the values behind:

Compound | solubility thermodynamic (physchem [1]) [µg/mL] | IC50 [3] [nM] | IC50 [5] [nM] | IC50 [6] [nM] | clearance (in vivo [8]) [mL/min/kg] | further results
Cc1c(CN2CCN(C(=O)CN)CC2)sc2c(N3CCOCC3)nc(-c3cnc(N)nc3)nc12 | 690 (≈ 1430 µM) | 11 | 17 | 4.3 | – | Ki [4]: 12 nM; IC50 [7]: 0.7 nM
Cc1c(CN2CCN(C(=O)[C@H](C)N)CC2)sc2c(N3CCOCC3)nc(-c3cnc(N)nc3)nc12 | – | 29 | 37 | 2.4 | – | Ki [4]: 6.3 nM
Cc1c(CN2CCN(C(=O)C(C)(C)N)CC2)sc2c(N3CCOCC3)nc(-c3cnc(N)nc3)nc12 | 1000 (≈ 1950 µM) | 44 | 20 | 1.5 | – | Ki [4]: 14 nM
Cc1c(CN2CCN(C(=O)C(C)(C)O)CC2)sc2c(N3CCOCC3)nc(-c3cnc(N)nc3)nc12 | 600 (≈ 1170 µM) | 45 | 25 | 5 | – | Ki [4]: 14 nM
CS(=O)(=O)N1CCN(Cc2cc3nc(-c4cnc(N)nc4)nc(N4CCOCC4)c3s2)CC1.Cl | – | – | – | – | – | clearance (in vivo [9]): 22 mL/min/kg
Cc1c(CN2CCN(S(C)(=O)=O)CC2)sc2c(N3CCOCC3)nc(-c3cnc(N)nc3)nc12.Cl | – | – | – | – | – | clearance (in vivo [9]): 5 mL/min/kg
Cc1c(CN2CCN(C(=O)CN)CC2)sc2c(N3CCOCC3)nc(-c3cnc(N)nc3)nc12.O=C(O)C(F)(F)F | – | – | – | – | 140 | bioavailability (in vivo [10]): 0%
Cc1c(CN2CCN(C(=O)C(C)(C)N)CC2)sc2c(N3CCOCC3)nc(-c3cnc(N)nc3)nc12.O=C(O)C(F)(F)F | – | – | – | – | 84 | bioavailability (in vivo [10]): 6%
Cc1c(CN2CCN(C(=O)C(C)(C)O)CC2)sc2c(N3CCOCC3)nc(-c3cnc(N)nc3)nc12.O=C(O)C(F)(F)F | – | – | – | – | 24 | bioavailability (in vivo [10]): 71%
